Experimental data as given in patent publication US20120122843A1, “Compounds and Their Use for Treatment of Amyloid Beta-Related Diseases” (ASTRAZENECA AB, priority 2010, published 2012).

Assays:
[1] = system: Aβ42; experiment: Aβ42 release from HEK cells stably expressing APPswe (MSD electrochemiluminescence); assay type: cell-based, Human; details: 4-6 h incubation with test compound, Aβ42 secreted to cell medium
Method: The level of activity of the compounds on Aβ formation was tested using the following method:
Compounds were diluted in 100% DMSO and stored at […] prior to use. Human Embryonic Kidney (HEK) cell line stably expressing APP with the Swedish mutation (APPswe) were cultured using Dulbecco's Modified Eagles medium (DMEM) supplied with […] glucose, Na-pyruvate and GlutaMAX with 10% FBS, 100 U/ml penicillin-streptomycin (PEST) respectively, 1× non-essential amino acids (NEAA), […] Hepes, 100 μg/ml Zeocine. Cells at about 80% confluence were washed with PBS, detached from culture flasks using 1× Trypsin/EDTA diluted in PBS, re-suspended in cell media and plated in 384-well poly-d-lysine coated cell culture plates at about 10000-15000 cells/well, in 25 μL cell media. Optionally, cryo-preserved cells (frozen and stored at −140° C. in 90% cell media and 10% DMSO) were thawed, washed and plated as above. Next the cells were incubated for 15-24 h at 37° C. and 5% CO2, after which cell medium was changed. Fresh medium containing test compound diluted ×200 from prepared compound plate was added to the cells before further incubation for 4-6 hours at 37° C. and 5% CO2. After incubation with test compound the amount of Aβ peptides, including Aβ42, Aβ40, Aβ39, Aβ38 and Aβ37, as well as total Aβ levels, secreted to cell medium was analyzed using the electrochemiluminescence assay technology from Meso Scale Discovery (MSD), in combination with specific antibodies raised against the different Aβ peptides. Aβ42, Aβ40 and Aβ38 antibodies were purchased from MSD and Aβ37 and Aβ39 were made in house. Total Aβ was measured using a combination of 6E10 and 4G8 anti Aβ antibodies from MSD. Potential cytotoxic effects of the compounds were usually assayed by measuring the ATP content (ViaLight) from cell lysate.

[2] = system: Notch; experiment: Release and translocation of Notch intracellular domain into the nucleus, HEK/AENotch cells (NICD immunostaining, ImageXpress); assay type: cell-based, Human; details: 3 μM Lactacystin, 4-6 h incubation, nucleus/cytosol NICD fluorescence ratio
Method: The level of activity of the compounds on release and translocation of Notch intracellular domain into the cell nucleus was tested using the following method:
Compounds were diluted in 100% DMSO and stored at […] prior to use. Human Embryonic Kidney cell line overexpressing Notchl-E-human-myc construct (referred to as HEK/AENotch) were cultured in T75 cm^2 or T225 cm^2 cell culture flasks using Dulbecco's Modified Eagles medium (DMEM) supplemented with […] glucose, Na-pyruvate and GlutaMAX with 10% FBS, 100 U/ml penicillin-streptomycin (PEST) respectively, 1× non-essential amino acids (NEAA), […] Hepes and 100 μg/ml Hygromycin. Cells at about 80% confluence were washed with PBS, detached from the flask bottom using 1× Trypsin/EDTA diluted in PBS, re-suspended in cell media and plated in 384-well plates at about 10000 cells/well, in 25 μL cell media. Optionally, cryo-preserved cells (frozen and stored at −140° C. in 90% cell media and 10% DMSO) were thawed, washed and plated as above. Next the cells were incubated for 15-24 h at 37° C. and 5% CO2, after which cell medium was replaced with fresh medium containing 3 μM Lactacystin and test compound diluted ×200 from prepared compound plate giving 0.5% final DMSO concentration, and the highest compound concentration typically 25 μM. Cells were then incubated 4-6 h with test compound before being fixed, washed and immunostained with NICD antibody (rabbit Notch 1 (C-20)). Image acquisition of cytosolic/membrane and nuclear fluorescence as well as subsequent analysis of the nucleus and cytosolic fluorescence ratio was carried out using ImageXpress. Potential cytotoxic effects of the compounds were usually assayed by analysis of nucleus area or cell number.

[3] = Homo sapiens, HEK293, HEK cells expressing APPswe

Row | Compound | IC50 [1, 3] [µM] | IC50 ([2]; Homo sapiens) [µM] | IC50 ([1]; HEK cells expressing APPswe) [µM] | IC50 [2] [µM]
1 | COc1nc(Nc2cc(C)c3c(n2)OC(C2CC2)CN(C)C3)ccc1-c1cnn(C)c1 (centres unmarked) [Example 13, 2-Cyclopropyl-N-(6-methoxy-5-(1-methyl-1H-pyrazol-4-yl)pyridin-2-yl)-4,6-dimethyl-2,3,4,5-tetrahydropyrido[3,2-f][1,4]oxazepin-8-amine] | 0.048 | > 5 |  | 
2 | COc1nc(Nc2ccc3c(n2)OC(CCC(F)(F)F)CN(C)C3)ccc1-n1cnc(C)c1 (single isomer, unassigned; (-)) [Example 62, (−)-[6-Methoxy-5-(4-methyl-imidazol-1-yl)-pyridin-2-yl]-[6-methyl-8-(3,3,3-trifluoro-propyl)-5,6,7,8-tetrahydro-9-oxa-1,6-diaza-benzocyclohepten-2-yl]-amine] |  |  | 0.005 | > 25
3 | COc1nc(Nc2ccc3c(n2)OC(c2ncc(C)s2)CN(C)C3)ccc1-n1cnc(C)c1 (single isomer, unassigned; (+)) [Example 66, (+)-N-(6-Methoxy-5-(4-methyl-1H-imidazol-1-yl)pyridin-2-yl)-4-methyl-2-(5-methylthiazol-2-yl)-2,3,4,5-tetrahydropyrido[3,2-f][1,4]oxazepin-8-amine] |  |  | 0.038 | > 25
4 | COc1nc(Nc2ccc3c(n2)OC(c2nc(C)cs2)CN(C)C3)ccc1-c1cnn(C)c1 (centres unmarked) [Example 9, N-(6-Methoxy-5-(1-methyl-1H-pyrazol-4-yl)pyridin-2-yl)-4-methyl-2-(4-methylthiazol-2-yl)-2,3,4,5-tetrahydropyrido[3,2-f][1,4]oxazepin-8-amine] | 0.019 | > 15.8 |  | 
5 | Cc1ncn(-c2ccc(Nc3ccc4c(n3)OC(c3cccc(Cl)c3)CN(C)C4)nc2)n1 (centres unmarked) [Example 23, 2-(3-Chlorophenyl)-4-methyl-N-(5-(3-methyl-1H-1,2,4-triazol-1-yl)pyridin-2-yl)-2,3,4,5-tetrahydropyrido[3,2-f][1,4]oxazepin-8-amine] | 0.055 | > 2.5 |  | 
6 | Cc1cn(-c2ccc(Nc3ccc4c(n3)O[C@H](c3nc(C)cs3)CN(C)C4)nc2C#N)cn1 [Example 55, 3-(4-Methylimidazol-1-yl)-6-[[(2S)-4-methyl-2-(4-methylthiazol-2-yl)-3,5-dihydro-2H-pyrido[3,2-f][1,4]oxazepin-8-yl]amino]pyridine-2-carbonitrile] | 0.044 | > 25 |  | 
7 | COc1nc(Nc2ccc3c(n2)OC(CC(F)(F)F)CN(C)C3)ccc1-c1cnn(C)c1 (centres unmarked) [Example 3, N-(6-Methoxy-5-(1-methyl-1H-pyrazol-4-yl)pyridin-2-yl)-4-methyl-2-(2,2,2-trifluoroethyl)-2,3,4,5-tetrahydropyrido[3,2-f][1,4]oxazepin-8-amine] | 0.017 | > 25 |  | 
8 | COc1nc(Nc2ccc3c(n2)OC(C2CC2)CN(C)C3C)ccc1-c1cnn(C)c1 (single isomer, unassigned) [Example 18, 2-Cyclopropyl-N-(6-methoxy-5-(1-methyl-1H-pyrazol-4-yl)pyridin-2-yl)-4,5-dimethyl-2,3,4,5-tetrahydropyrido[3,2-f][1,4]oxazepin-8-amine] |  |  | 0.037 | > 7.9
9 | COc1nc(Nc2cc(C)c3c(n2)OC(C2CCCO2)CN(C)C3)ccc1-c1cnn(C)c1 (single isomer, unassigned) [Example 26, N-(6-Methoxy-5-(1-methyl-1H-pyrazol-4-yl)pyridin-2-yl)-4,6-dimethyl-2-(tetrahydrofuran-2-yl)-2,3,4,5-tetrahydropyrido[3,2-f][1,4]oxazepin-8-amine] |  |  | 0.056 | > 7.9
10 | COc1nc(Nc2ccc3c(n2)O[C@H](c2nc(C)cs2)CN(C)C3)c(F)cc1-c1cnn(C)c1 [Example 54, (2S)—N-[3-Fluoro-6-methoxy-5-(1-methylpyrazol-4-yl)-2-pyridyl]-4-methyl-2-(4-methylthiazol-2-yl)-3,5-dihydro-2H-pyrido[3,2-f][1,4]oxazepin-8-amine] | 0.018 | 6.49 |  | 
